9 substances from patent KR19980042868A, “인슐린-유사 작용을 갖는 이노시톨글리칸” (피셔 한스-위르겐, priority 1996, dated 1998) can be followed below.

Test [1] has as its system rat adipocytes (랫트 지방 세포). The test can be described thus: Lipogenesis (지방형성): incorporation of D-[3-3H]glucose into toluene-soluble lipids in isolated rat adipocytes. In kind it is cell-based. The conditions noted are these: 90 min, 37°C; for pEC50: concentration giving 50% of the compound's own maximum stimulation; for %Insmax: maximum insulin stimulation ratio (with/without insulin) = 100%.

The subject of test [2] is rat adipocytes (랫트 지방 세포). Description: Glucose transport (글루코오스 이송): uptake of 2-[3H]-deoxyglucose in isolated rat adipocytes. In kind it is cell-based. The note with it: 15 min, 37°C, then 2-[3H]-deoxyglucose at room temperature; for pEC50: concentration giving 50% of the compound's own maximum stimulation; for %Insmax: maximum insulin stimulation ratio = 100%.

As a reminder, the pEC50 is the EC50 on a negative log10 scale, so that one unit is a factor of ten.

pEC50: −log10 of the molar value.

As to “HO-PO(H)O-6Manα1(Manα1-2)-2Manα1-6Manα1-3GluNβ1-6(L)이노시톨-3-포스페이트 [D]”, in test [1], the pEC50 is 4.70 and the “%Insmax” value was found to be 33%. In addition, in test [2], the pEC50 was 4.74 and the “%Insmax” value amounted to 18%.
On the same counts, the results for “HO-PO(H)O-6Manα1-6-Manα1-6Manα1-6Manα1-3GluNβ1-6(L)이노시톨-3-포스페이트 [I]” are 4.70, 18%, 4.30 and 14%.
On the same counts, the results for “HO-PO(H)O-6Manα1-4GluNα1-6(L)이노시톨-1,2-(사이클릭)-포스페이트” are 4.82, 25%, 4.82 and 9%.
The like results for “HO-PO(H)O-6Manα1(Manα1-2)-2Manα1-6Manα1-4GluNβ1-6(D)이노시톨-1,2-(사이클릭)-티오포스페이트 [C]” were, in that order, 5.15, 64%, 5.00 and 29%.
Turning to “HO-PO(H)O-6Manα1(Manα1-2)-2Manα1-6Manα1-4GluNα1-6(L)이노시톨-2-포스페이트 [F]”, the pEC50 was 4.82 in test [1] and 4.60 in test [2]. The “%Insmax” value is on record as 53% in test [1] and 26% in test [2].
On the same counts, the results for “HO-PO(H)O-6Manα1(Manα1-2)-2Manα1(6-EtNP)-6Manα1(2-EtNP)-4GluNβ1-6(D)이노시톨-1,2-(사이클릭)-포스페이트” are 4.22, 4.52, 48% and 34%.
As for HO-PO(H)O-6Manα1-4GluNα1-6(L)이노시톨, the pEC50 in test [1] is 4.60; in test [2], 5.00. Further, the “%Insmax” value in test [1] came out at 15%; in test [2], 2%.
The like results for “HO-PO(H)O-6Manα1(Manα1-2)-2Manα1-6Manα1-4GluNβ1-6(D)이노시톨-1,2-(사이클릭)-포스페이트 [화합물 B]” were, in that order, 5.09, 5.09, 77% and 41%.
On the same counts, the results for “HO-PO(H)O-6Manα(Manα1-2)-2Manα1-6Manα1-4GluNβ1-6(L)이노시톨-1,2-(사이클릭)-포스페이트 [화합물 A]” are 5.15, 5.10, 59% and 28%.
